Holding throughout (assay type): in vivo
In one data set the test system is Indian mallow. The data set can be described thus: weed control effect in post-emergence stage (Table 1). The arrangement: key: Level 10: completely dead; Level 9: above 95% growth control rate; Level 8: above 90% growth control rate; Level 7: above 80% growth control rate; Level 6: above 70% growth control rate; Level 5: above 60% growth control rate; Level 4: above 50% growth control rate; Level 3: above 20% growth control rate; Level 2: 5%-20% growth control rate; Level 1: below 5% growth control rate. The following applies: post-emergence spray at 4-5 leaf stage, 250 g/ha active ingredient with 450 kg/ha water, rated after 3 weeks in greenhouse. In outline: (§1)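 Fresh-weight-based growth control rate was assessed 3 weeks after spraying. Test compound, dissolved in acetone, with tween 80 added and diluted in water, was sprayed onto greenhouse-grown, pot-cultured weeds and crop plants at 4-5 leaves, 2-3 weeks post-sowing.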

For another data set, the system named is bidens bipinnata. The data set is described as above. The arrangement: key: Level 10: completely dead; Level 9: above 95% growth control rate; Level 8: above 90% growth control rate; Level 7: above 80% growth control rate; Level 6: above 70% growth control rate; Level 5: above 60% growth control rate; Level 4: above 50% growth control rate; Level 3: above 20% growth control rate; Level 2: 5%-20% growth control rate; Level 1: below 5% growth control rate. The conditions noted are these: post-emergence spray at 4-5 leaf stage, 250 g/ha active ingredient with 450 kg/ha water, rated after 3 weeks in greenhouse. In short, it runs like this: as §1

The next data set deals with crab grass. The data set is described as above. The following applies: post-emergence spray at 4-5 leaf stage, 250 g/ha active ingredient with 450 kg/ha water, rated after 3 weeks in greenhouse. The arrangement: key: Level 10: completely dead; Level 9: above 95% growth control rate; Level 8: above 90% growth control rate; Level 7: above 80% growth control rate; Level 6: above 70% growth control rate; Level 5: above 60% growth control rate; Level 4: above 50% growth control rate; Level 3: above 20% growth control rate; Level 2: 5%-20% growth control rate; Level 1: below 5% growth control rate. In outline:
as §1

A further data set has as its system echinochloa. The data set is described as above. The arrangement: key: Level 10: completely dead; Level 9: above 95% growth control rate; Level 8: above 90% growth control rate; Level 7: above 80% growth control rate; Level 6: above 70% growth control rate; Level 5: above 60% growth control rate; Level 4: above 50% growth control rate; Level 3: above 20% growth control rate; Level 2: 5%-20% growth control rate; Level 1: below 5% growth control rate. The conditions noted are these: post-emergence spray at 4-5 leaf stage, 250 g/ha active ingredient with 450 kg/ha water, rated after 3 weeks in greenhouse. In short, it runs like this: as §1

The next data set concerns foxtail. The data set is described as above. The following applies: post-emergence spray at 4-5 leaf stage, 250 g/ha active ingredient with 450 kg/ha water, rated after 3 weeks in greenhouse. The arrangement: key: Level 10: completely dead; Level 9: above 95% growth control rate; Level 8: above 90% growth control rate; Level 7: above 80% growth control rate; Level 6: above 70% growth control rate; Level 5: above 60% growth control rate; Level 4: above 50% growth control rate; Level 3: above 20% growth control rate; Level 2: 5%-20% growth control rate; Level 1: below 5% growth control rate. In outline:
as §1

For the next data set, the system named is rorippa indica. Described as above. The arrangement: key: Level 10: completely dead; Level 9: above 95% growth control rate; Level 8: above 90% growth control rate; Level 7: above 80% growth control rate; Level 6: above 70% growth control rate; Level 5: above 60% growth control rate; Level 4: above 50% growth control rate; Level 3: above 20% growth control rate; Level 2: 5%-20% growth control rate; Level 1: below 5% growth control rate. The conditions noted are these: post-emergence spray at 4-5 leaf stage, 250 g/ha active ingredient with 450 kg/ha water, rated after 3 weeks in greenhouse. In short, it runs like this: as §1

Another data set has as its system corn. The data set can be described thus: post-emergence stage experiment, crop (Table 1). The following applies: post-emergence spray at 4-5 leaf stage, 250 g/ha active ingredient with 450 kg/ha water, rated after 3 weeks in greenhouse. In short, it runs like this:
as §1

For data set [1], the system named is wheat. The data set can be described thus: post-emergence stage experiment, crop (Table 1). The conditions noted are these: post-emergence spray at 4-5 leaf stage, 250 g/ha active ingredient with 450 kg/ha water, rated after 3 weeks in greenhouse. In outline:
as §1

In a further data set the test system is rice. The data set can be described thus: post-emergence stage experiment, crop (Table 1). The following applies: post-emergence spray at 4-5 leaf stage, 250 g/ha active ingredient with 450 kg/ha water, rated after 3 weeks in greenhouse. In outline: as §1
In the next data set the test system is alopecurus japonicas. As to the kind of experiment: wheat field resistant weed control, greenhouse spray at 4 leaf stage. The following applies: sprayed at 4 leaf stage, 4 weeks after treatment, resistant to ALS and ACCase inhibitor herbicides. The arrangement: key: Level 10: completely dead; Level 9: above 95% growth control rate; Level 8: above 90% growth control rate; Level 7: above 80% growth control rate; Level 6: above 70% growth control rate; Level 5: above 60% growth control rate; Level 4: above 50% growth control rate; Level 3: above 20% growth control rate; Level 2: 5%-20% growth control rate; Level 1: below 5% growth control rate. The protocol:
(§2) The activity level standard of harmful plant destruction (i.e. growth control rate) is as follows:
(§3) The above described growth control rate is fresh weight control rate.
(§4) The seeds of alopecurus japonicas, flixweed, shepherd's purse, corn gromwell, chickweed, beckmannia syzigachne, and annual ryegrass and wheat seeds were put into a plastic pot loaded with soil, and then covered with 0.5-2 cm soil, the seeds were allowed to grow in good greenhouse environment. The test plants were treated at 4 leaf stage 2-3 weeks after sowing. The test compounds of the present invention were dissolved in acetone respectively, then added with methyl oleate emulsion and diluted by certain amount of water to certain concentration. The solution was sprayed to the plant with a sprayer. Then the plants were cultured for 4 weeks in greenhouse.

Data set [2] concerns wheat. The data set can be described thus: wheat field test, crop selectivity, greenhouse spray at 4 leaf stage. The conditions noted are these: sprayed at 4 leaf stage, 4 weeks after treatment. The protocol: as §2, §3, §4

We go through four compounds from patent US11076594B2, “Pyrazolone compound or salt thereof, preparation method therefor, herbicide composition and use thereof” (QINGDAO KINGAGROOT CHEMICAL COMPOUNDS CO., LTD., priority 2015, dated 2021).

As to `Cn1cc(C(=O)Oc2c(C(=O)c3ccc(C(F)(F)F)c(N4CCCCC4=O)c3Cl)c(C3CC3)nn2C)cn1` [Compound 049], the “weed control effect, Indian mallow (level)” value in the data set with Indian mallow came out at 10. Also, in the data set with bidens bipinnata, the “weed control effect, Bidens bipinnata (level)” value is on record as 4 (Level 4: above 50% growth control rate). Besides, the “weed control effect, Crab grass (level)” value with crab grass is reported as 6 (Level 6: above 70% growth control rate). Besides, in the data set on echinochloa, the “weed control effect, Echinochloa (level)” value is listed as 6 (Level 6: above 70% growth control rate). In addition, the “weed control effect, Green foxtail (level)” value in the data set with foxtail is reported as 9 (Level 9: above 95% growth control rate). In addition, the “weed control effect, Rorippa indica (level)” value in the data set with rorippa indica was determined as 10. Moreover, the “effect on crop, Corn (level)” value in the data set with corn is 2 (Level 2: 5%-20% growth control rate). The “effect on crop, Wheat (level)” value in the data set with wheat [1] is given as 3 (Level 3: above 20% growth control rate). The “effect on crop, Rice (level)” value in the data set on rice was 7 (Level 7: above 80% growth control rate). Moreover, the “Alopecurus japonicas weed controlling effect (activity level)” value with alopecurus japonicas (1 g/mu) was 8 (Level 8: above 90% growth control rate); with alopecurus japonicas (2 g/mu), 9 (Level 9: above 95% growth control rate); in the data set on alopecurus japonicas (4 g/mu) it was 10; in the data set on alopecurus japonicas (8 g/mu), 10. In addition, the “Wheat (activity level, crop damage)” value in the data set on wheat [2] (2 g/mu) is on record as 0; with wheat [2] (4 g/mu) it was 1 (Level 1: below 5% growth control rate); with wheat [2] (8 g/mu) it was 1 (Level 1: below 5% growth control rate); with wheat [2] (16 g/mu), 3 (Level 3: above 20% growth control rate); in the data set on wheat [2] (32 g/mu) it was 3 (Level 3: above 20% growth control rate).

Turning to `Cc1nn(C)cc1C(=O)Oc1c(C(=O)c2ccc(C(F)(F)F)c(N3CCCC3=O)c2Cl)c(C2CC2)nn1C` [Compound 027], the “weed control effect, Indian mallow (level)” value with Indian mallow is reported as 10. For the same compound, in the data set on bidens bipinnata, the “weed control effect, Bidens bipinnata (level)” value is recorded as 8 (Level 8: above 90% growth control rate). The “weed control effect, Crab grass (level)” value in the data set on crab grass is 8 (Level 8: above 90% growth control rate). In addition, in the data set on echinochloa, the “weed control effect, Echinochloa (level)” value is listed as 7 (Level 7: above 80% growth control rate). In the data set on foxtail, the “weed control effect, Green foxtail (level)” value was determined as 10. The “weed control effect, Rorippa indica (level)” value with rorippa indica is recorded as 7 (Level 7: above 80% growth control rate). Further, in the data set with corn, the “effect on crop, Corn (level)” value was 4 (Level 4: above 50% growth control rate). In addition, the “effect on crop, Wheat (level)” value in the data set on wheat [1] is listed as 3 (Level 3: above 20% growth control rate). The “effect on crop, Rice (level)” value in the data set with rice was 7 (Level 7: above 80% growth control rate). The “Alopecurus japonicas weed controlling effect (activity level)” value with alopecurus japonicas (1 g/mu) is on record as 6 (Level 6: above 70% growth control rate); in the data set with alopecurus japonicas (2 g/mu) it was 10; in the data set on alopecurus japonicas (4 g/mu) it was 10; in the data set with alopecurus japonicas (8 g/mu), 10. Besides, the “Wheat (activity level, crop damage)” value is 1 (Level 1: below 5% growth control rate) in the data set on wheat [2] (2 g/mu); 4 (Level 4: above 50% growth control rate) in the data set on wheat [2] (4 g/mu); 4 (Level 4: above 50% growth control rate) with wheat [2] (8 g/mu); 4 (Level 4: above 50% growth control rate) in the data set on wheat [2] (16 g/mu); 5 (Level 5: above 60% growth control rate) in the data set with wheat [2] (32 g/mu).

`CCOc1c(C(=O)Oc2c(C(=O)c3ccc(C(F)(F)F)c(N4CCCC4=O)c3Cl)c(C3CC3)nn2C)cnn1C` [Compound 026]: the “weed control effect, Indian mallow (level)” value with Indian mallow came to 10. Also, the “weed control effect, Bidens bipinnata (level)” value in the data set with bidens bipinnata was 5 (Level 5: above 60% growth control rate). The “weed control effect, Crab grass (level)” value in the data set with crab grass worked out at 10. Besides, the “weed control effect, Echinochloa (level)” value in the data set with echinochloa is reported as 6 (Level 6: above 70% growth control rate). In the data set on foxtail, the “weed control effect, Green foxtail (level)” value is listed as 10. For the same compound, the “effect on crop, Corn (level)” value in the data set on corn is listed as 4 (Level 4: above 50% growth control rate). In addition, the “effect on crop, Wheat (level)” value in the data set on wheat [1] is reported as 4 (Level 4: above 50% growth control rate). In addition, the “effect on crop, Rice (level)” value in the data set on rice is reported as 8 (Level 8: above 90% growth control rate). The “Alopecurus japonicas weed controlling effect (activity level)” value is 8 (Level 8: above 90% growth control rate) in the data set on alopecurus japonicas (1 g/mu), 10 in the data set with alopecurus japonicas (2 g/mu), 10 with alopecurus japonicas (4 g/mu) and 10 in the data set with alopecurus japonicas (8 g/mu). In addition, the “Wheat (activity level, crop damage)” value is recorded as 1 (Level 1: below 5% growth control rate) in the data set with wheat [2] (2 g/mu); 3 (Level 3: above 20% growth control rate) with wheat [2] (4 g/mu); 8 (Level 8: above 90% growth control rate) with wheat [2] (8 g/mu); 8 (Level 8: above 90% growth control rate) in the data set with wheat [2] (16 g/mu); 8 (Level 8: above 90% growth control rate) with wheat [2] (32 g/mu).

Regarding `CCn1nc(C2CC2)c(C(=O)c2ccc(C(F)(F)F)c(N3CCCCC3=O)c2Cl)c1OC(=O)c1cn(C)nc1C` [Compound 115], the “weed control effect, Indian mallow (level)” value with Indian mallow is listed as 10. In the data set on bidens bipinnata, the “weed control effect, Bidens bipinnata (level)” value is recorded as 6 (Level 6: above 70% growth control rate). Moreover, the “weed control effect, Crab grass (level)” value in the data set with crab grass is reported as 2 (Level 2: 5%-20% growth control rate). The “weed control effect, Echinochloa (level)” value in the data set on echinochloa was 9 (Level 9: above 95% growth control rate). In addition, the “weed control effect, Green foxtail (level)” value with foxtail came to 10. Moreover, in the data set on rorippa indica, the “weed control effect, Rorippa indica (level)” value is reported as 10. Moreover, in the data set on corn, the “effect on crop, Corn (level)” value is reported as 3 (Level 3: above 20% growth control rate). Further, in the data set with wheat [1], the “effect on crop, Wheat (level)” value is 1 (Level 1: below 5% growth control rate). In addition, in the data set with rice, the “effect on crop, Rice (level)” value is reported as 8 (Level 8: above 90% growth control rate). Also, the “Alopecurus japonicas weed controlling effect (activity level)” value in the data set with alopecurus japonicas (1 g/mu) is 4 (Level 4: above 50% growth control rate); in the data set with alopecurus japonicas (2 g/mu), 6 (Level 6: above 70% growth control rate); in the data set on alopecurus japonicas (4 g/mu), 10; in the data set on alopecurus japonicas (8 g/mu), 10. Besides, the “Wheat (activity level, crop damage)” value in the data set on wheat [2] (2 g/mu) is listed as 0; in the data set with wheat [2] (4 g/mu), 1 (Level 1: below 5% growth control rate); in the data set with wheat [2] (8 g/mu) it was 3 (Level 3: above 20% growth control rate); in the data set with wheat [2] (16 g/mu) it was 4 (Level 4: above 50% growth control rate); in the data set on wheat [2] (32 g/mu), 4 (Level 4: above 50% growth control rate).
